In patent publication EP4667476A1, “NOVEL MITOCHONDRIA-TARGETING COMPOUNDS” (THE CATHOLIC UNIVERSITY OF KOREA INDUSTRY-ACADEMIC …, priority 2023, dated 2024):

Test system: PD-L1
Experiment: PD-L1 expression in gastric cancer cells by flow cytometer
Type: cell-based
Conditions: AGS; metformin at a concentration 50 times higher than that of JH-001 (FIG. 8)
Protocol: After treating an AGS cell line, a gastric cancer cell line, with JH-001 for each concentration, the expression of PD-L1, an immunocompromised marker, was confirmed using a flow cytometer. […] In addition, metformin, known as a mitochondria-targeting drug, was treated at a concentration 50 times higher than that of JH-001 and the expression level of PD-L1 was confirmed. As a result, it was confirmed that JH-001 according to the present disclosure inhibited PD-L1 expression about 2 times higher than metformin treatment, even though JH-001 was treated at a much lower concentration (FIG. 8).

For `CN(CCCNC(=O)CCCCC[P+](c1ccccc1)(c1ccccc1)c1ccccc1)C(=N)NC(=N)N` [JH-001, (6-((3-(3-carbamimidoyl-1-methylguanidino)propyl)amino)-6-oxohexyl)triphenylphosphonium], the “inhibition of PD-L1 expression relative to metformin treatment” value was “about 2 times”.
